Converted amounts (≈) assume the structure as drawn. The source made the active and inactive calls. No cut-off for these calls is given here.
Experiments:
Plasmodium berghei [1] = test: Antimalarial activity against asexual blood stage of Plasmodium berghei ANKA infected in Balb/c mouse assessed as reduction in parasitemia at 30 mg/kg, po qd administered at 2 hrs post-infection on day 0 and then on days 1,2 and 3 post-infection and measured on day 4 to 7 post-infection by peter's test; type: functional, organism-based; conditions: time 5-8 day
Plasmodium berghei [2] = test: Antimalarial activity against asexual blood stage of Plasmodium berghei ANKA infected in Balb/c mouse assessed as reduction in parasitemia at 30 mg/kg, po qd administered at 2 hrs post-infection on day 0 and then on days 1,2 and 3 post-infection and measured on day 2 to 4 post-infection; type: functional, organism-based; conditions: time 3-5 day
[3] = Aqueous solubility of the compound in PBS buffer at pH 7.4 at 200 uM incubated for 2 hrs under shaking condition by miniaturized shake flask method; type: physicochemical
[4] = Intrinsic clearance in human liver microsomes at 1 uM measured for 60 mins by LC-MS/MS analysis; type: ADME, Microsome; conditions: read-out: CLH
[5] = Intrinsic clearance in rat hepatocytes at 1 uM measured per million cells for 90 mins by LC-MS/MS analysis; type: ADME, cell-based, Hepatocyte; conditions: read-out: CLH
Plasmodium falciparum [6] = test: Antiplasmodial activity against asexual blood stage of Plasmodium falciparum 3D7 assessed as inhibition of parasite growth incubated for 72 hrs by LDH assay; type: functional, organism-based; conditions: 3D7, 72 h
[7] = Lipophilicity, elogD of the compound in 1-Octanol/PBS at pH 7.4 at 7.5 uM incubated for 2 hrs by miniaturized shake flask method; type: physicochemical
[8] = Cytotoxicity against human HepG2 cells assessed as inhibition of cell growth incubated for 48 hrs by CellTiter-Glo luminescence assay; type: toxicity, cell-based
Plasmodium falciparum [9] = test: Antiplasmodial activity against multidrug-resistant Plasmodium falciparum Dd2 harboring cyt b-I22L mutant infected in erythrocytes assessed as inhibition of parasite growth incubated for 72 hrs by [3H]hypoxanthine incorporation based microbeta counting analysis; type: functional, organism-based; conditions: Dd2, Erythrocyte
Plasmodium falciparum [10] = test: Antiplasmodial activity against Plasmodium falciparum Dd2 infected in erythrocytes assessed as inhibition of parasite growth incubated for 72 hrs by [3H]hypoxanthine incorporation based microbeta counting analysis; type: functional, organism-based; conditions: Dd2, Erythrocyte
Plasmodium falciparum [11] = test: Antiplasmodial activity against multidrug-resistant Plasmodium falciparum Dd2 harboring PI4K-S743F mutant infected in erythrocytes assessed as inhibition of parasite growth incubated for 72 hrs by [3H]hypoxanthine incorporation based microbeta counting analysis; type: functional, organism-based; conditions: Dd2, Erythrocyte
Plasmodium falciparum [12] = test: Antiplasmodial activity against multidrug-resistant Plasmodium falciparum Dd2 harboring DHODH-C276F mutant infected in erythrocytes assessed as inhibition of parasite growth incubated for 72 hrs by [3H]hypoxanthine incorporation based microbeta counting analysis; type: functional, organism-based; conditions: Dd2, Erythrocyte
Plasmodium falciparum [13] = test: Antiplasmodial activity against multidrig-resistant Plasmodium falciparum Dd2 harboring eEF2Y-I86N mutant infected in erythrocytes assessed as inhibition of parasite growth incubated for 72 hrs by [3H]hypoxanthine incorporation based microbeta counting analysis; type: functional, organism-based; conditions: Dd2, Erythrocyte
Plasmodium falciparum [14] = test: Antiplasmodial activity against multidrug-resistant Plasmodium falciparum Dd2 harboring CARL-I1139K mutant infected in erythrocytes assessed as inhibition of parasite growth incubated for 72 hrs by [3H]hypoxanthine incorporation based microbeta counting analysis; type: functional, organism-based; conditions: Dd2, Erythrocyte
Plasmodium falciparum [15] = test: Antiplasmodial activity against ring stage of Plasmodium falciparum 3D7 expressing ABCI3-HAreg assessed as inhibition of parasite proliferation incubated for 72 hrs in presence of ABCI3 inhibitor, GlcN by SYBR dye based flow cytometry; type: functional, organism-based; conditions: 3D7, 72 h
Plasmodium falciparum [16] = test: Antiplasmodial activity against multidrug-resistant Plasmodium falciparum TM90-C2B infected in erythrocytes assessed as inhibition of parasite growth incubated for 72 hrs by [3H]hypoxanthine incorporation based microbeta counting analysis; type: functional, organism-based; conditions: Erythrocyte
Plasmodium falciparum [17] = test: Antimalarial activity against asexual stage of Plasmodium falciparum 3D7 infected in erythrocytes assessed as parasite killing at 10XEC50 incubated for 48 hrs with compound renewal for every 24 hrs followed by drug removal and incubation for 48 hrs with CFDA-SE labelled fresh erythrocytes by Hoechst 33342 staining based two-color flow cytometry; type: functional, organism-based; conditions: Erythrocyte
Plasmodium falciparum [18] = test: Antiplasmodial activity against multidrug-resistant Plasmodium falciparum Cam3.1 infected in erythrocytes assessed as inhibition of parasite growth incubated for 72 hrs by [3H]hypoxanthine incorporation based microbeta counting analysis; type: functional, organism-based; conditions: Cam3.1, Erythrocyte
Plasmodium falciparum [19] = test: Antiplasmodial activity against multidrug-resistant Plasmodium falciparum NF54 infected in erythrocytes assessed as inhibition of parasite growth incubated for 72 hrs by [3H]hypoxanthine incorporation based microbeta counting analysis; type: functional, organism-based; conditions: NF54, Erythrocyte
Plasmodium falciparum [20] = test: Antiplasmodial activity against multidrug-resistant Plasmodium falciparum K1 infected in erythrocytes assessed as inhibition of parasite growth incubated for 72 hrs by [3H]hypoxanthine incorporation based microbeta counting analysis; type: functional, organism-based; conditions: K1, Erythrocyte
Plasmodium falciparum [21] = test: Antiplasmodial activity against ring stage of Plasmodium falciparum 3D7 expressing ABCI3-HAreg assessed as inhibition of parasite proliferation incubated for 72 hrs in absence of ABCI3 inhibitor, GlcN by SYBR dye based flow cytometry; type: functional, organism-based; conditions: 3D7, 72 h
Plasmodium falciparum [22] = test: Antimalarial activity against asexual stage of Plasmodium falciparum 3D7 infected in erythrocytes assessed as lag phase of parasite growth at 10XEC50 incubated for 24 hrs followed by drug removal and incubation for 48 hrs with CFDA-SE labelled fresh erythrocytes by Hoechst 33342 staining based two-color flow cytometry; type: functional, organism-based; conditions: Erythrocyte
[23] = Ratio of EC50 for antiplasmodial activity against ring stage of Plasmodium falciparum 3D7 expressing ABCI3-HAreg in absence of ABCI3 inhibitor, GlcN to EC50 for antiplasmodial activity against ring stage of Plasmodium falciparum 3D7 expressing ABCI3-HAreg in presence of ABCI3 inhibitor, GlcN; type: functional
Plasmodium falciparum [24] = test: Antiplasmodial activity against multidrug-resistant Plasmodium falciparum 7G8 infected in erythrocytes assessed as inhibition of parasite growth incubated for 72 hrs by [3H]hypoxanthine incorporation based microbeta counting analysis; type: functional, organism-based; conditions: 7G8, Erythrocyte

| Structure (SMILES) | solubility thermodynamic at 2 h, 200 µM [3] [µM] | microsomal CLint at 1 µM [4] [µL/min/mg] | hepatocyte CLint at 1 µM [5] [µL/min/1e6 cells] | EC50 (Plasmodium falciparum [6]) [nM] | logD at 2 h, 7.5 µM [7] | CC50 at 48 h [8] [nM] | further results |
| --- | --- | --- | --- | --- | --- | --- | --- |
| C[C@H]1[C@H](OC(=O)CCC(=O)O)O[C@@H]2O[C@@]3(C)CC[C@H]4[C@H](C)CC[C@@H]1[C@@]24OO3 | – | – | – | – | – | – | Activity (Plasmodium berghei [1]): inactive; Activity (Plasmodium berghei [2]): Active |
| CC(C)(C)n1nc(Cl)c2c(C(=O)N3CCOc4ccccc43)cc(C3CC3)nc21 | < 2.5 | 155 | 34 | 260 | > 5.9 | > 40000 | – |
| Cc1nn(C(C)(C)C)c2nc(C3CC3)cc(C(=O)N3CCN(C)c4ccccc43)c12 | 3 (≈ 1.21 µg/mL) | 387 | 65 | 257 | 5.4 | > 40000 | – |
| COc1cc2[nH]c(C)c(-c3ccc(Oc4ccc(OC(F)(F)F)cc4)cc3)c(=O)c2cc1Cl | – | – | – | – | – | – | EC50 (Plasmodium falciparum [9]): 120 nM; EC50 (Plasmodium falciparum [10]): 14 nM |
| CS(=O)(=O)c1ccc(-c2cnc(N)c(-c3ccc(C(F)(F)F)nc3)c2)cc1 [MMV-048] | – | – | – | – | – | – | EC50 (Plasmodium falciparum [11]): 90 nM; EC50 (Plasmodium falciparum [10]): 12 nM |
| Cc1cc(Nc2ccc(S(F)(F)(F)(F)F)cc2)n2nc(C(C)(F)F)nc2n1 [DSM-265] | – | – | – | – | – | – | EC50 (Plasmodium falciparum [12]): 100 nM; EC50 (Plasmodium falciparum [10]): 6 nM |
| O=C(NCCN1CCCC1)c1cc(-c2ccc(CN3CCOCC3)cc2)nc2ccc(F)cc12 [CABAMIQUINE] | – | – | – | – | – | – | EC50 (Plasmodium falciparum [13]): 850 nM; EC50 (Plasmodium falciparum [10]): 1 nM |
| Cc1nn(C(C)C)c2nc(C3CC3)cc(C(=O)N3CCOc4ccccc43)c12 | 10 (≈ 3.76 µg/mL) | 424 | > 92 | 310 | 4.5 | > 40000 | – |
| Cc1nn(C(C)(C)C)c2nc(C3CC3)cc(C(=O)N3CCOc4ccc(F)cc43)c12 | 2.8 (≈ 1.14 µg/mL) | 100 | 22 | 130 | 5.8 | 9670 | – |
| COc1nn(C(C)C)c2nc(C3CC3)cc(C(=O)N3CCOc4ccncc43)c12 | 161 (≈ 63.3 µg/mL) | > 462 | > 92 | 15 | 3.7 | 28700 | – |
| COc1nn(C(C)(C)C)c2nc(C3CC3)cc(C(=O)N3CCOc4ccncc43)c12 | 19 (≈ 7.74 µg/mL) | 423 | 87 | 5 | 5.1 | 7260 | – |
| Cc1nn(C(C)(C)C)c2nc(C3CC3)cc(C(=O)N3CCNc4ccccc43)c12 | 3.5 (≈ 1.36 µg/mL) | 471 | 123 | 181 | 4.8 | > 40000 | – |
| COc1nn(C(C)(C)C)c2nc(C3CC3)cc(C(=O)N3CCOc4ccccc43)c12 | < 2.5 | 300 | 19 | 123 | > 6.4 | > 40000 | – |
| CC1(C)c2nc(-c3ccc(F)cc3)c(Nc3ccc(F)cc3)n2CCN1C(=O)CN [GANAPLACIDE] | – | – | – | – | – | – | EC50 (Plasmodium falciparum [10]): 17 nM; EC50 (Plasmodium falciparum [14]): 1920 nM |
| Cc1nn(C(C)(C)C)c2nc(C3CC3)cc(C(=O)N3CCOc4cc(F)ccc43)c12 | < 2.5 | 160 | 23 | 1050 | 5.9 | > 10000 | – |
| CC(C)(C)n1nc(-c2ccccc2)c2c(C(=O)N3CCOc4ccccc43)cc(C3CC3)nc21 | – | – | – | 2180 | – | > 40000 | – |
| CCN(CC)CCCC(C)Nc1ccnc2cc(Cl)ccc12 (stereo not drawn) [CHLOROQUINE] | – | – | – | – | – | – | EC50 (Plasmodium falciparum [15]): 11.3 nM |
| Cc1nn(C(C)(C)C)c2nc(C3CC3)cc(C(=O)N3CCCc4ccccc43)c12 | 2.8 (≈ 1.09 µg/mL) | 277 | 45 | 164 | 5.9 | > 40000 | – |
| Cc1cc(C)c(NC(=O)c2cc(C)nc3c2c(C)nn3C)c(Cl)c1 | – | – | – | 170 | – | > 40000 | – |
| Cc1cc(C(=O)N2CCOc3ccccc32)c2c(C)nn(C(C)(C)C)c2n1 | – | – | – | 5630 | – | > 40000 | – |
| Cc1nn(C(C)(C)C)c2nc(C3CC3)cc(C(=O)N3CCOc4ccccc43)c12 | < 2.5 | 206 | 49 | 130 | 5.4 | > 40000 | EC50 (Plasmodium falciparum [16]): 119 nM; EC50 (Plasmodium falciparum [9]): 91 nM; EC50 (Plasmodium falciparum [11]): 101 nM; Activity (Plasmodium falciparum [17]): Active; EC50 (Plasmodium falciparum [13]): 104 nM; EC50 (Plasmodium falciparum [18]): 89 nM; EC50 (Plasmodium falciparum [19]): 46 nM; EC50 (Plasmodium falciparum [12]): 105 nM; EC50 (Plasmodium falciparum [10]): 88 nM; EC50 (Plasmodium falciparum [20]): 134 nM; EC50 (Plasmodium falciparum [14]): 79 nM; EC50 (Plasmodium falciparum [15]): 13.9 nM; EC50 (Plasmodium falciparum [21]): 47.6 nM; Activity (Plasmodium falciparum [22]): Active; Ratio EC50 [23]: 3.4; EC50 (Plasmodium falciparum [24]): 114 nM |
| Cc1nn(C(C)(C)C)c2nc(C3CC3)cc(C(=O)Nc3ccccc3)c12 | – | – | – | 3850 | – | > 10000 | – |

From ChEMBL document CHEMBL5608197, “Optimization of pyrazolopyridine 4-carboxamides with potent antimalarial activity for which resistance is associated with the P. falciparum transporter ABCI3” (Eur J Med Chem, 2024)
